Measurements from patent publication US7236891B2, “Methods of determining polypeptide structure and function” (Queen's University at Kingston, priority 2001, dated 2007).
Entries after “also recorded” stand apart in the source; their conditions may differ. Read-outs that look alike come from different tables or passages of the source. Square brackets hold non-standard residues; d marks the D form. Peptide text beside a SMILES is read from it. Nle = CCCC[C@H](N)C(=O)O

What was measured:
[1] = molecular target: T1, μI-II (domain I-II construct from μ-calpain) (Rattus norvegicus, UniProt P97571); experiment: Proteolytic activity of μI-II against synthetic peptide substrate SLY-MCA; format: biochemical; details: for inhibition of μI-II protease activity: qualitative, data not shown
T1 construct: extended from residue 29 (MG^29RHENA-) to residue 356; added N-terminal Met (N); made in house; host or cells: E. coli BL21 (DE3)
T1 sequence (P97571 29-356): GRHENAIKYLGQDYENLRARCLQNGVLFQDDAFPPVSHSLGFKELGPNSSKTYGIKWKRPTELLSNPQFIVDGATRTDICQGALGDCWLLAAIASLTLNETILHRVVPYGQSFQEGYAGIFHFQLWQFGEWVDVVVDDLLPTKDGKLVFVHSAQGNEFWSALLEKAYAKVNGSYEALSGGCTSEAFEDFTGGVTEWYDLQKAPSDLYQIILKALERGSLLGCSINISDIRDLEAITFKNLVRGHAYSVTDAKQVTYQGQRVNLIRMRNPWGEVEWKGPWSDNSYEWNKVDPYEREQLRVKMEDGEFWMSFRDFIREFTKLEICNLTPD
Procedure: (§1) Proteolytic digestion of the C105S m-calpain heterodimer was performed at 22° C. in a final volume of less than 150 μL, in 50 mM HEPES pH 7.6, 1 mg/mL calpain, 0.15 mg/mL μI-II, without divalent cations, or with 1 mM CaCl2 or 1 mM MgCl2. Autolysis of μI-II was performed under the same conditions but instead of the C105S m-calpain substrate, 2.5 mg/mL of μI-II was used. The reaction was stopped by the addition of 2×SDS sample buffer. At specific time intervals aliquots were removed and analyzed by SDS-PAGE using a 9% gel. Control reactions lacked the protease domain I–II. The activity of μI-II against the peptide substrate SLY-MCA (Sigma) was also tested in 50 mM HEPES pH 7.6, 200 mM NaCl, 1 mM DTT, 5–30 mM divalent cation (CaCl2, MgCl2, MnCl2, or ZnCl2), 0.75 mM SLY-MCA, 2.5 μM μI-II, in a final volume of 3 mL. MCA release was monitored in a LS50B Perkin Elmer luminescence spectrometer set with excitation and the emission wavelengths at 360 nm and 460 nm, respectively. Steady-state kinetics analysis was performed under the same buffer conditions but in the presence of 0.5 mM CaCl2, by varying SLY-MCA concentration from 0.02–1.5 mM. The steady-state parameters (kcat and KM) were obtained from the Michaelis-Menten plot.

μI-II (C115S) [2] = molecular target: T2, μI-II (C115S) (Rattus norvegicus, UniProt P97571, C115S); experiment: Intrinsic tryptophan fluorescence of μI-II during Ca2+ titration; format: binding; details: for ability to substitute for CaCl2 in the intrinsic tryptophan fluorescence change: concentrations up to 30 mM
T2 construct: extended from residue 29 (MG^29RHENA-) to residue 356; added N-terminal Met (N); made in house; host or cells: E. coli BL21 (DE3)
T2 sequence (P97571 29-356 C115S): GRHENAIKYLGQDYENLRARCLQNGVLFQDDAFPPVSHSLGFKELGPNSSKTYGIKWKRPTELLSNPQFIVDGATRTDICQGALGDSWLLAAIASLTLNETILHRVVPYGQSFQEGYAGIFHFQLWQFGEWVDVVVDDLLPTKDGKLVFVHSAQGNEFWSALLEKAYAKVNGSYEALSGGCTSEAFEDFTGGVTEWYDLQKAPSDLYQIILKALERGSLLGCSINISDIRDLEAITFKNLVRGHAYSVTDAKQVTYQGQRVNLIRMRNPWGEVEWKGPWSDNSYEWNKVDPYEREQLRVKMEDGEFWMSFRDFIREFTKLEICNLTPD
Procedure: Intrinsic tryptophan fluorescence measurements were performed in a Perkin Elmer LS50B fluorescence spectrophotometer at 22° C. using a stirrer-adapted 4 mL cuvette (Helmma). Excitation and emission wavelength were set at 280 nm and 340 nm, respectively. The reaction buffer was the same as that used for activity measurements against SLY-MCA, and the protein concentration was 0.65 μM. […] CaCl2 (50 mM) dissolved in the reaction buffer was pumped continuously (4 μL/min, Harvard Apparatus pump 22) using a 250 μL microsyringe (Hamilton-microliter 1000 series gastight) through a tube into the cuvette. The reaction mixture was vigorously mixed using the internal magnetic stirrer of the fluorimeter. The fluorescence intensity was corrected for dilution, and the normalised data was fitted to the Hill equation y=x^n/k^n+x^n), where y is the fraction of maximum intensity change, k=[Ca^2+]0.5 (the value of [Ca^2+] at which half-maximum intensity change is observed, n is the Hill coefficient, and x is [Ca^2+]. Intrinsic tryptophan fluorescence measurements were also performed under the same buffer conditions but substituting for CaCl2, either MgCl2, MnCl2, or ZnCl2 up to 30 mM. To test the aggregation state of the domain I–II constructs, relative 90° light scattering was monitored under the same reaction conditions by setting both the excitation and emission wavelength of the spectrophotometer to 320 nm. No significant aggregation was detected even at the highest CaCl2 concentration (30 mM) tested.

μI-II [3] = molecular target: T3, μI-II (Rattus norvegicus, UniProt P97571); experiment: Autolysis of μI-II in 1 mM CaCl2 (SDS-PAGE); details: 1 mM CaCl2, 20 hours
T3 construct: extended from residue 29 (MG^29RHENA-) to residue 356; added N-terminal Met (N); made in house; host or cells: E. coli BL21 (DE3)
T3 sequence (P97571 29-356): as the sequence (P97571 29-356) above
Procedure: as §1

μI-II (C115S) [4] = molecular target: T2, μI-II (C115S); experiment: Intrinsic tryptophan fluorescence of μI-II during Ca2+ titration; format: binding; details: read-out: Ca2+ requirement for activation of μI-II
intact μ-calpain = molecular target: T4, intact μ-calpain (Homo sapiens, UniProt P07384); details: reported values; read-out: Ca2+ for half-maximal activation of intact μ-calpain; cited from earlier work
T4 sequence (P07384 1-714): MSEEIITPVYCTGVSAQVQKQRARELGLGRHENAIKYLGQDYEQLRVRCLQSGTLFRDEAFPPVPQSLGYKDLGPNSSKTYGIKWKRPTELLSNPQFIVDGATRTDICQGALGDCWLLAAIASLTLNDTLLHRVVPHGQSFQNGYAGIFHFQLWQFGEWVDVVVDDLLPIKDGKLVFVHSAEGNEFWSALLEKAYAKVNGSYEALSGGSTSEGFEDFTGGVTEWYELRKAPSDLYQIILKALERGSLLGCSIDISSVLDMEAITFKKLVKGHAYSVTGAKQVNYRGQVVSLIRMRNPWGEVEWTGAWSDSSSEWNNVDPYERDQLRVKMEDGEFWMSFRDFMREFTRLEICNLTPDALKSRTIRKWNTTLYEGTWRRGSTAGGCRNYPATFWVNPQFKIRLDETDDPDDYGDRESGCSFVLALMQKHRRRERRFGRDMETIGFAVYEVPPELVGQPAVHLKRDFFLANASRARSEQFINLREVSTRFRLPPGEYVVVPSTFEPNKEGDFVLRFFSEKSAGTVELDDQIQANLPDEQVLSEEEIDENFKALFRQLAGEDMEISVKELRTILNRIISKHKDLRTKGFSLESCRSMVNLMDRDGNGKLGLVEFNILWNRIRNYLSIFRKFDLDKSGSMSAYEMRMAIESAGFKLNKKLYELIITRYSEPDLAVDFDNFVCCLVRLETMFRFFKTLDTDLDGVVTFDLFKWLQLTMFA
T4 sequence (P04632 1-268 partner): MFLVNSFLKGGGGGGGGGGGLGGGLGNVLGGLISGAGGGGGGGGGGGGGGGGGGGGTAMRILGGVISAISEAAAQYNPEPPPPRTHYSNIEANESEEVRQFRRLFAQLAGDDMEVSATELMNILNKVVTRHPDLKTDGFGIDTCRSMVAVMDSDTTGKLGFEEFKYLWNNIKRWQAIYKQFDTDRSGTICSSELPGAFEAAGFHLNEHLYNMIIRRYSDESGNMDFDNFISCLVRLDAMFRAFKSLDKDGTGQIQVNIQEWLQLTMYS

μI-II [5] = molecular target: T3, μI-II; experiment: Proteolysis of inactive C105S m-calpain heterodimer by μI-II; format: biochemical; details: 1 mM MgCl2
Procedure: as §1

Compound: CC(C)C[C@H](NC(=O)[C@H]1O[C@@H]1C(=O)O)C(=O)NCCCCN=C(N)N (relative stereo) [E64, trans-epoxysuccinyl-L-leucilamido(4-guanidino)-butane]
- SLY-MCA hydrolysis by E64-reacted μI-II (μI-II-E64) ([1]; C115 μI-II reacted with E64 in 5 mM CaCl2): unable to hydrolyse SLY-MCA
- inhibition of μI-II protease activity [1]: abolished; also recorded: inhibited
- effect on W298 fluorescence of μI-II (μI-II (C115S) [2]; μI-II-E64 complex): quenching

Compound: CC(=O)N[C@@H](CC(C)C)C(=O)N[C@@H](CC(C)C)C(=O)N[C@H](C=O)CCCNC(=N)N [leupeptin]
- inhibition of μI-II protease activity [1]: abolished; also recorded: inhibited

Compound: CCCC[C@@H](C=O)NC(=O)[C@H](CC(C)C)NC(=O)[C@H](CC(C)C)NC(C)=O [calpain inhibitor I] (Ac-Leu-Leu-[Nle]-aldehyde)
- inhibition of μI-II protease activity [1]: abolished; also recorded: inhibited

Compound: μI-II: recombinant protease core, domains I and II (residues 29-356) of rat μ-calpain with C-terminal His tag
- catalytic efficiency relative to the full enzyme ([1]; SLY-MCA digestion): ~2%
- decrease in turnover (kcat) compared to intact m-calpain ([1]; SLY-MCA digestion): 35 fold
- μI-II still present after autodigestion (μI-II [3]): Over 50%

Compound: [Cl][Mn][Cl] [MnCl2]
- ability to substitute for CaCl2 in the intrinsic tryptophan fluorescence change (μI-II (C115S) [2]): unable to substitute

Compound: [Cl-].[Cl-].[Zn+2] [ZnCl2]
- ability to substitute for CaCl2 in the intrinsic tryptophan fluorescence change (μI-II (C115S) [2]): unable to substitute

Compound: [Ca+2].[Cl-].[Cl-] [CaCl2]
- CaCl2 concentration at which the fluorescence increase was >99% complete (μI-II (C115S) [2]): ~500 µM
- CaCl2 concentration at which the fluorescence increase was first noticeable (μI-II (C115S) [2]): ~5 µM
- total increase in the fluorescence intensity (μI-II (C115S) [2]; CaCl2 titration): ~36.8±0.5%
- Hill coefficient (μI-II (C115S) [2]; CaCl2 titration fitted to the Hill equation): 2.72±0.42
- EC50 (μI-II (C115S) [2]; CaCl2 titration, excitation 280 nm, emission 340 nm, read-out: half-maximal change in intrinsic tryptophan fluorescence): 41.8 ± 7.1 µM
- EC50 (μI-II (C115S) [4]): ~40 µM
- EC50 (intact μ-calpain): 5 to 50 µM

Compound: O=C(O)CN(CCN(CC(=O)O)CC(=O)O)CC(=O)O [EDTA, reference compound]
- reversal of the Ca2+-induced fluorescence change (μI-II (C115S) [2]; data not shown): completely reversed

Compound: [Cl-].[Cl-].[Mg+2] [MgCl2]
- ability to substitute for CaCl2 in the intrinsic tryptophan fluorescence change (μI-II (C115S) [2]): unable to substitute
- proteolysis of C105S m-calpain by μI-II when substituted for Ca2+ (μI-II [5]): no proteolysis
